Results on 8 molecules are retold here after PubChem BioAssay (NCI).

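In this assay, cells in 96-well plates receive the compound at five concentrations for 48 hours. Endpoints are linearly interpolated between the surrounding concentrations. The concentration for full growth arrest is given as TGI.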

In the first test the test system is CAKI-1 renal. Nature of the test: inhibition of tumour cell growth, NCI panel, 48 h.
On to `O=C1C(Br)=Cc2c(Cl)sc(Cl)c21`, for which the TGI was 8.99 µM.

Turning to `O=[N+]([O-])C(=C(Sc1ccccc1)Sc1ccccc1)C(Cl)=C(Cl)Cl`, the TGI stood at 1.61 µM.

In turn, `NCCCC(N)C(=O)O` (stereo not given) gave a TGI above 100 µM.

`CCOC(=O)C1C(=O)CC(O)(c2ccccc2)C(C(=O)OCC)C1c1ccc(OC)cc1` (stereo not given) showed a TGI above 100 µM.

Regarding `COc1cc2c(cc1OC)C(=O)/C(=C/c1cc(C)c(O)c(C)c1)C2`, the TGI is above 100 µM.

`COC(=O)CCCC(=O)C(=Nc1c(Cl)cccc1Cl)NNc1ccc(Cl)cc1`: the TGI was above 100 µM.

Molecule `C=CC/C(C(=O)OC)=C(/C(=O)OC)N(CCC)CCC` came in with a TGI above 100 µM.

With `N#CC(C#N)=C1CCCS(=O)(=O)c2ccccc21`, the TGI is above 100 µM.

A further test deals with NCI-H460 lung. Nature of the test: inhibition of tumour cell growth, NCI panel, 48 h.
In the case of `O=C1C(Br)=Cc2c(Cl)sc(Cl)c21`, the TGI is 53.3 µM.

In the case of `O=[N+]([O-])C(=C(Sc1ccccc1)Sc1ccccc1)C(Cl)=C(Cl)Cl`, the TGI was 16.6 µM.

The molecule `NCCCC(N)C(=O)O` (stereo not given) registered a TGI above 100 µM.

Consider `CCOC(=O)C1C(=O)CC(O)(c2ccccc2)C(C(=O)OCC)C1c1ccc(OC)cc1` (stereo not given), for which the TGI is above 100 µM.

`COc1cc2c(cc1OC)C(=O)/C(=C/c1cc(C)c(O)c(C)c1)C2`: the TGI is above 100 µM.

For `COC(=O)CCCC(=O)C(=Nc1c(Cl)cccc1Cl)NNc1ccc(Cl)cc1`, the TGI was above 100 µM.

In turn, `C=CC/C(C(=O)OC)=C(/C(=O)OC)N(CCC)CCC` showed a TGI above 100 µM.

For `N#CC(C#N)=C1CCCS(=O)(=O)c2ccccc21`, the TGI was above 100 µM.

The next test relates to OVCAR-3 ovarian. Nature of the test: inhibition of tumour cell growth, NCI panel, 48 h.
As for `O=C1C(Br)=Cc2c(Cl)sc(Cl)c21`, the TGI was 12.1 µM.

Molecule `O=[N+]([O-])C(=C(Sc1ccccc1)Sc1ccccc1)C(Cl)=C(Cl)Cl` had a TGI of 1.31 µM.

Take `NCCCC(N)C(=O)O` (stereo not given): the TGI was above 100 µM.

In the case of `CCOC(=O)C1C(=O)CC(O)(c2ccccc2)C(C(=O)OCC)C1c1ccc(OC)cc1` (stereo not given), the TGI stood at 42.8 µM.

In turn, `COc1cc2c(cc1OC)C(=O)/C(=C/c1cc(C)c(O)c(C)c1)C2` registered a TGI above 100 µM.

In turn, `COC(=O)CCCC(=O)C(=Nc1c(Cl)cccc1Cl)NNc1ccc(Cl)cc1` registered a TGI above 100 µM.

`C=CC/C(C(=O)OC)=C(/C(=O)OC)N(CCC)CCC` showed a TGI above 100 µM.

`N#CC(C#N)=C1CCCS(=O)(=O)c2ccccc21` gave a TGI above 100 µM.

The subject of a further test is OVCAR-5 ovarian. Nature of the test: inhibition of tumour cell growth, NCI panel, 48 h.
Turning to `O=C1C(Br)=Cc2c(Cl)sc(Cl)c21`, the TGI was 36 µM.

`O=[N+]([O-])C(=C(Sc1ccccc1)Sc1ccccc1)C(Cl)=C(Cl)Cl` returned a TGI of 1.48 µM.

As for `NCCCC(N)C(=O)O` (stereo not given), the TGI is above 100 µM.

As to `CCOC(=O)C1C(=O)CC(O)(c2ccccc2)C(C(=O)OCC)C1c1ccc(OC)cc1` (stereo not given), the TGI was above 100 µM.

The molecule `COc1cc2c(cc1OC)C(=O)/C(=C/c1cc(C)c(O)c(C)c1)C2` displayed a TGI of 13.5 µM.

For `COC(=O)CCCC(=O)C(=Nc1c(Cl)cccc1Cl)NNc1ccc(Cl)cc1`, the TGI was above 100 µM.

Molecule `C=CC/C(C(=O)OC)=C(/C(=O)OC)N(CCC)CCC` registered a TGI above 100 µM.

In turn, `N#CC(C#N)=C1CCCS(=O)(=O)c2ccccc21` showed a TGI above 100 µM.

For the next test, the system named is RPMI-8226 leukemia. Nature of the test: inhibition of tumour cell growth, NCI panel, 48 h.
Molecule `O=C1C(Br)=Cc2c(Cl)sc(Cl)c21` showed a TGI of 2.98 µM.

As for `O=[N+]([O-])C(=C(Sc1ccccc1)Sc1ccccc1)C(Cl)=C(Cl)Cl`, the TGI was 0.0712 µM.

As for `NCCCC(N)C(=O)O` (stereo not given), the TGI was above 100 µM.

Turning to `CCOC(=O)C1C(=O)CC(O)(c2ccccc2)C(C(=O)OCC)C1c1ccc(OC)cc1` (stereo not given), the TGI came to 40.6 µM.

In turn, `COc1cc2c(cc1OC)C(=O)/C(=C/c1cc(C)c(O)c(C)c1)C2` showed a TGI above 100 µM.

Turning to `COC(=O)CCCC(=O)C(=Nc1c(Cl)cccc1Cl)NNc1ccc(Cl)cc1`, the TGI is above 100 µM.

The molecule `C=CC/C(C(=O)OC)=C(/C(=O)OC)N(CCC)CCC` showed a TGI above 100 µM.

`N#CC(C#N)=C1CCCS(=O)(=O)c2ccccc21`: the TGI was above 100 µM.

The subject of the next test is SK-MEL-28 melanoma. Nature of the test: inhibition of tumour cell growth, NCI panel, 48 h.
The molecule `O=C1C(Br)=Cc2c(Cl)sc(Cl)c21` returned a TGI of 41.3 µM.

In turn, `O=[N+]([O-])C(=C(Sc1ccccc1)Sc1ccccc1)C(Cl)=C(Cl)Cl` gave a TGI of 1.09 µM.

Take `NCCCC(N)C(=O)O` (stereo not given): the TGI was above 100 µM.

Regarding `CCOC(=O)C1C(=O)CC(O)(c2ccccc2)C(C(=O)OCC)C1c1ccc(OC)cc1` (stereo not given), the TGI is above 100 µM.

For `COc1cc2c(cc1OC)C(=O)/C(=C/c1cc(C)c(O)c(C)c1)C2`, the TGI is above 100 µM.

Take `COC(=O)CCCC(=O)C(=Nc1c(Cl)cccc1Cl)NNc1ccc(Cl)cc1`: the TGI is above 100 µM.

In the case of `C=CC/C(C(=O)OC)=C(/C(=O)OC)N(CCC)CCC`, the TGI is above 100 µM.

The molecule `N#CC(C#N)=C1CCCS(=O)(=O)c2ccccc21` registered a TGI above 100 µM.

For a further test, the system named is SK-OV-3 ovarian. Nature of the test: inhibition of tumour cell growth, NCI panel, 48 h.
The molecule `O=C1C(Br)=Cc2c(Cl)sc(Cl)c21` gave a TGI of 35.8 µM.

In turn, `O=[N+]([O-])C(=C(Sc1ccccc1)Sc1ccccc1)C(Cl)=C(Cl)Cl` yielded a TGI of 24.6 µM.

For the molecule `NCCCC(N)C(=O)O` (stereo not given), the TGI was above 100 µM.

Turning to `CCOC(=O)C1C(=O)CC(O)(c2ccccc2)C(C(=O)OCC)C1c1ccc(OC)cc1` (stereo not given), the TGI came out at 89.9 µM.

Regarding `COc1cc2c(cc1OC)C(=O)/C(=C/c1cc(C)c(O)c(C)c1)C2`, the TGI is above 100 µM.

As for `COC(=O)CCCC(=O)C(=Nc1c(Cl)cccc1Cl)NNc1ccc(Cl)cc1`, the TGI is above 100 µM.

In the case of `C=CC/C(C(=O)OC)=C(/C(=O)OC)N(CCC)CCC`, the TGI is above 100 µM.

The molecule `N#CC(C#N)=C1CCCS(=O)(=O)c2ccccc21` had a TGI above 100 µM.

The test system of the next test is SN12C renal. Nature of the test: inhibition of tumour cell growth, NCI panel, 48 h.
`O=C1C(Br)=Cc2c(Cl)sc(Cl)c21` had a TGI of 18.4 µM.

The molecule `O=[N+]([O-])C(=C(Sc1ccccc1)Sc1ccccc1)C(Cl)=C(Cl)Cl` showed a TGI of 1.35 µM.

`NCCCC(N)C(=O)O` (stereo not given) displayed a TGI above 100 µM.

Consider `CCOC(=O)C1C(=O)CC(O)(c2ccccc2)C(C(=O)OCC)C1c1ccc(OC)cc1` (stereo not given), for which the TGI was above 100 µM.

For the molecule `COc1cc2c(cc1OC)C(=O)/C(=C/c1cc(C)c(O)c(C)c1)C2`, the TGI was above 100 µM.

The molecule `COC(=O)CCCC(=O)C(=Nc1c(Cl)cccc1Cl)NNc1ccc(Cl)cc1` had a TGI above 100 µM.

Molecule `C=CC/C(C(=O)OC)=C(/C(=O)OC)N(CCC)CCC` gave a TGI above 100 µM.

Molecule `N#CC(C#N)=C1CCCS(=O)(=O)c2ccccc21` had a TGI above 100 µM.

A further test concerns SW-620 colon. Nature of the test: inhibition of tumour cell growth, NCI panel, 48 h.
Regarding `O=C1C(Br)=Cc2c(Cl)sc(Cl)c21`, the TGI worked out at 12.9 µM.

As for `O=[N+]([O-])C(=C(Sc1ccccc1)Sc1ccccc1)C(Cl)=C(Cl)Cl`, the TGI worked out at 0.228 µM.

For the molecule `NCCCC(N)C(=O)O` (stereo not given), the TGI was above 100 µM.

The molecule `CCOC(=O)C1C(=O)CC(O)(c2ccccc2)C(C(=O)OCC)C1c1ccc(OC)cc1` (stereo not given) displayed a TGI above 74.3 µM.

For `COc1cc2c(cc1OC)C(=O)/C(=C/c1cc(C)c(O)c(C)c1)C2`, the TGI is above 100 µM.

Molecule `COC(=O)CCCC(=O)C(=Nc1c(Cl)cccc1Cl)NNc1ccc(Cl)cc1` registered a TGI above 100 µM.

With `C=CC/C(C(=O)OC)=C(/C(=O)OC)N(CCC)CCC`, the TGI is above 100 µM.

Take `N#CC(C#N)=C1CCCS(=O)(=O)c2ccccc21`: the TGI was above 100 µM.

The next test concerns T-47D breast. Nature of the test: inhibition of tumour cell growth, NCI panel, 48 h.
In the case of `O=C1C(Br)=Cc2c(Cl)sc(Cl)c21`, the TGI came to 7.58 µM.

Take `O=[N+]([O-])C(=C(Sc1ccccc1)Sc1ccccc1)C(Cl)=C(Cl)Cl`: the TGI was 1.14 µM.

For the molecule `NCCCC(N)C(=O)O` (stereo not given), the TGI is above 100 µM.

`CCOC(=O)C1C(=O)CC(O)(c2ccccc2)C(C(=O)OCC)C1c1ccc(OC)cc1` (stereo not given) gave a TGI above 100 µM.

Molecule `COc1cc2c(cc1OC)C(=O)/C(=C/c1cc(C)c(O)c(C)c1)C2` came in with a TGI above 100 µM.

For the molecule `COC(=O)CCCC(=O)C(=Nc1c(Cl)cccc1Cl)NNc1ccc(Cl)cc1`, the TGI is above 100 µM.

In the case of `C=CC/C(C(=O)OC)=C(/C(=O)OC)N(CCC)CCC`, the TGI is above 100 µM.

For `N#CC(C#N)=C1CCCS(=O)(=O)c2ccccc21`, the TGI is above 100 µM.
